Experimental data taken from ChEMBL document CHEMBL3751662, “Novel quinoline derivatives as potent in vitro -glucosidase inhibitors: in silico studies and SAR predictions” (Medchemcomm, 2015).

How the values were obtained:
[1] = Cytotoxicity against mouse 3T3L1 cells assessed as cell viability at 1 to 20 ug/ml after 48 hrs by MTT assay; format: cell-based; conditions: 3t3-l1, 48 h
[2] = Cytotoxicity against Wistar rat CC1 cells assessed as cell viability at 1 to 20 ug/ml after 48 hrs by MTT assay; format: cell-based; conditions: cc-1, 48 h
[3] = target: alpha-glucosidase (Saccharomyces cerevisiae); test: Inhibition of alpha-glucosidase (Saccharomyces cerevisiae) using p-nitrophenyl glucopyranoside as substrate preincubated for 10 mins followed by substrate addition measured after 30 mins by plate reader analysis
[4] = system: alpha-glucosidase (Saccharomyces cerevisiae); test: Potency index, ratio of acarbose IC50 to compound IC50 for alpha glucosidase (Saccharomyces cerevisiae)

| IC50 [3] | inhibition [3] | Ratio IC50 [4] | Structure (SMILES) | Activity [1] | Activity [2] |
| --- | --- | --- | --- | --- | --- |
| 39.2 µM |  |  | O=C(N/N=C/c1cccc(O)c1)c1ccc(-c2nnc(-c3ccc4ncccc4c3)o2)cc1 | Non-toxic | Non-toxic |
| 8.12 µM |  |  | O=C(N/N=C/c1c(O)cc(O)cc1O)c1ccc(-c2nnc(-c3ccc4ncccc4c3)o2)cc1 | Non-toxic | Non-toxic |
| 6.2 µM |  |  | COc1ccc(O)c(/C=N/NC(=O)c2ccc(-c3nnc(-c4ccc5ncccc5c4)o3)cc2)c1 | Non-toxic | Non-toxic |
| 6.8 µM |  |  | O=C(N/N=C/c1cccc(O)c1O)c1ccc(-c2nnc(-c3ccc4ncccc4c3)o2)cc1 | Non-toxic | Non-toxic |
| 27.2 µM |  |  | O=C(N/N=C/c1ccc(O)cc1)c1ccc(-c2nnc(-c3ccc4ncccc4c3)o2)cc1 | Non-toxic | Non-toxic |
| 2.6 µM |  | > 14 | O=C(N/N=C/c1ccc(O)c(O)c1)c1ccc(-c2nnc(-c3ccc4ncccc4c3)o2)cc1 | Non-toxic | Non-toxic |
| 21.2 µM |  |  | COc1ccc(/C=N/NC(=O)c2ccc(-c3nnc(-c4ccc5ncccc5c4)o3)cc2)cc1O | Non-toxic | Non-toxic |
| 37.1 µM |  |  | O=C(N/N=C/c1cc(O)cc(O)c1)c1ccc(-c2nnc(-c3ccc4ncccc4c3)o2)cc1 | Non-toxic | Non-toxic |
| 9.2 µM |  |  | COc1ccc(/C=N/NC(=O)c2ccc(-c3nnc(-c4ccc5ncccc5c4)o3)cc2)c(O)c1 | Non-toxic | Non-toxic |
| 8.5 µM |  |  | O=C(N/N=C/c1cc(O)ccc1O)c1ccc(-c2nnc(-c3ccc4ncccc4c3)o2)cc1 | Non-toxic | Non-toxic |
| 2.6 µM |  | > 14 | O=C(N/N=C/c1cc(O)c(O)cc1O)c1ccc(-c2nnc(-c3ccc4ncccc4c3)o2)cc1 | Non-toxic | Non-toxic |
| 8.45 µM |  |  | O=C(N/N=C/c1ccc(O)cc1O)c1ccc(-c2nnc(-c3ccc4ncccc4c3)o2)cc1 | Non-toxic | Non-toxic |
| 2.86 µM |  | > 14 | O=C(N/N=C/c1ccccc1O)c1ccc(-c2nnc(-c3ccc4ncccc4c3)o2)cc1 | Non-toxic | Non-toxic |

The remaining lines, values behind:

| Structure (SMILES) | IC50 [3] | inhibition [3] | Ratio IC50 [4] | Activity [1] | Activity [2] |
| --- | --- | --- | --- | --- | --- |
| Cc1ccccc1/C=N/NC(=O)c1ccc(-c2nnc(-c3ccc4ncccc4c3)o2)cc1 | 80.1 µM |  |  | Non-toxic | Non-toxic |
| O=C(N/N=C/c1ccccn1)c1ccc(-c2nnc(-c3ccc4ncccc4c3)o2)cc1 | 40.5 µM |  |  | Non-toxic | Non-toxic |
| O=C(N/N=C/c1ccncc1)c1ccc(-c2nnc(-c3ccc4ncccc4c3)o2)cc1 |  | < 50% |  | Non-toxic | Non-toxic |
| O=C(N/N=C/c1ccc(Cl)cc1)c1ccc(-c2nnc(-c3ccc4ncccc4c3)o2)cc1 | 3.9 µM |  |  | Non-toxic | Non-toxic |
| O=C(N/N=C/c1ccccc1Cl)c1ccc(-c2nnc(-c3ccc4ncccc4c3)o2)cc1 | 4.16 µM |  |  | Non-toxic | Non-toxic |
| Cc1ccc(/C=N/NC(=O)c2ccc(-c3nnc(-c4ccc5ncccc5c4)o3)cc2)cc1 | 102 µM |  |  | Non-toxic | Non-toxic |
| Cc1cccc(/C=N/NC(=O)c2ccc(-c3nnc(-c4ccc5ncccc5c4)o3)cc2)c1 | 100 µM |  |  | Non-toxic | Non-toxic |
| O=C(N/N=C/c1cccc([N+](=O)[O-])c1)c1ccc(-c2nnc(-c3ccc4ncccc4c3)o2)cc1 | 36.5 µM |  |  | Non-toxic | Non-toxic |
| O=C(N/N=C/c1cccnc1)c1ccc(-c2nnc(-c3ccc4ncccc4c3)o2)cc1 |  | < 50% |  | Non-toxic | Non-toxic |
| O=C(N/N=C/c1ccc([N+](=O)[O-])cc1)c1ccc(-c2nnc(-c3ccc4ncccc4c3)o2)cc1 | 63.5 µM |  |  | Non-toxic | Non-toxic |
| O=C(N/N=C/c1cccc(Cl)c1)c1ccc(-c2nnc(-c3ccc4ncccc4c3)o2)cc1 | 30.2 µM |  |  | Non-toxic | Non-toxic |
| O=C(N/N=C/c1ccccc1[N+](=O)[O-])c1ccc(-c2nnc(-c3ccc4ncccc4c3)o2)cc1 | 15.2 µM |  |  | Non-toxic | Non-toxic |
